Test results taken from PMC11222147, “Host defence peptide plectasin targets bacterial cell wall precursor lipid II by a calcium-sensitive supramolecular mechanism” (Nature Microbiology, 2024).
Entries after “also recorded” stand apart in the source; their conditions may differ. Where a SMILES comes first, the peptide text is derived from it. Bridges are numbered along the chain shown (N, C = ends).

Legend:
S. simulans 22 [1] = assay: MIC assays under standard conditions; format: cell-based, Staphylococcus simulans; details: Supplementary Table 1; cation-adjusted MHB, 37 °C, 16–20 h
Summary of the method: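 Broth microdilution in cation-adjusted MHB, inoculum from OD600 0.5 TSB culture diluted 100-fold, 37 °C with shaking. Streptococci: 5% lysed horse blood, 5% CO2, MIC read visually at 20–24 h; S. simulans read at 16–20 h.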

[2] = Isothermal titration calorimetry with lipid II LUVs; format: binding
Procedure: About 200 nm large unilamellar vesicles (LUVs) were prepared from 2 mol% lipid II in DOPC by the extrusion technique. ITC measurements were conducted on a low-volume Affinity ITC (TA instruments). All measurements were conducted at 37 °C. Samples were degassed for 10 min before the ITC experiments. The cell was filled with plectasin (in 50 mM HEPES, 150 mM NaCl at pH = 7.2) and titrated with LUVs in the same buffer under constant stirring at 125 r.p.m. The data were analysed using the Nano Analyze software version 3.11.0 (TA Instruments). After baseline correction, the integrated peaks were fitted using an independent binding model. Each measurement was acquired in duplicate.

[3] = HS-AFM oligomerization on supported lipid bilayers doped with lipid II; details: DOPC/DOPG (1:1), 1% lipid II, 1 mM Ca^2+, up to 1 µM, n = 3
Procedure: HS-AFM imaging was performed on a supported lipid bilayer deposited on mica using an amplitude modulation tapping mode HS-AFM from RIBM (Ando type)[11]. The lipid compositions are as stated in the experimental conditions of the corresponding results. Short cantilevers (∼7 μm) with a nominal spring constant of 0.15 N m^−1 were used (USC-F1.2-k0.15, NanoWorld) for all experiments. A minimal imaging force was applied by using a small set-point amplitude, typically 80% of the free amplitude (for 1–2 nm of free amplitude). […] Imaging was started on the lipid bilayer surface in recording buffer. […] All reported experiments were repeated for at least three times for each condition. Image analysis was done using Igor Pro version 6.22 (Wavemetrics) with RIBM script and ImageJ version 1.501 with minimal image corrections (tilt, drift and background corrections). The time stamps on HS-AFM videos are relative to plectasin addition into the liquid chamber. Image acquisition rate varied from 0.5 frames per second to 2 frames per second (see the figure/video legends).

S. pneumoniae serotype 8 = assay: MIC assays under standard conditions; format: cell-based, Streptococcus pneumoniae; details: Supplementary Table 1; cation-adjusted MHB + 5% lysed horse blood, 5% CO2, 20–24 h
Procedure: (§1) Plectasin and analogues were serially diluted in cation-adjusted Mueller–Hinton broth (MHB) in round-bottom polypropylene 96-well plates (50 µl per well). Selected bacterial strains were grown from glycerol stocks on blood agar plates. Individual colonies were inoculated in TSB and incubated at 37 °C while shaking until OD600 reached 0.5. Bacterial suspensions were then diluted 100 times in cation-adjusted MHB and distributed (50 μl per well) over the microplate containing the diluted plectasin solutions. Plates were covered by a gas-permeable adhesive membrane and incubated at 37 °C while shaking. MICs were determined by visual inspection after 16–20 h (Staphylococcus) or 20–24 h (Streptococcus). For Streptococcus strains, the broth was additionally supplemented with 5% lysed horse blood, and the microplates were incubated under 5% CO2 atmosphere. In the assays, we used the following strains: S. simulans, S. pneumoniae serotype 8, S. pneumoniae ATCC6305 and Streptococcus pyogenes M3.

S. pyogenes M3 = assay: MIC assays under standard conditions; format: cell-based, Streptococcus pyogenes; details: Supplementary Table 1; cation-adjusted MHB + 5% lysed horse blood, 5% CO2, 20–24 h
Procedure: as §1

S. simulans 22 [4] = format: cell-based, Staphylococcus simulans; details: Ca^2+ variable assay
Procedure: Cation-depleted MHB was prepared as previously described[18] and supplemented with MgCl2 (0.5 mM) and ZnSO4 (10 µM). Plectasin was serially diluted twofold over a 96-well polypropylene plate. Serial dilutions of Ca^2+ in calcium-depleted medium were subsequently added to the wells containing the plectasin dilution series, followed by addition of bacterial suspensions. MICs were determined by visual inspection after 16–20 h (Staphylococcus). The effect of reduced Ca^2+ levels on S. simulans growth in the absence of plectasin was assessed by monitoring growth at 37 °C by OD600 over 18 h (Supplementary Fig. 4).

[5] = cited from earlier work
Source text: Extended Data Fig. 5 Plectasin binds to bivalent cations with high affinity and its activity is enhanced by calcium ions. Representative ITC traces of the binding of bivalent cations to plectasin in solution and the effect of Mg^2+ on plectasin-lipid II binding. Heat releases and fits of Mg^2+ (A) or Ca^2+ (B) titrated to plectasin in solution. C) Calculated affinities and thermodynamic parameters experiments from (A) and (B), conducted in duplicate. Heat release traces and fits of the titration of Lipid II DOPC vesicles to plectasin without (D) and with (E) the addition of Mg^2+. F,G). Ca^2+ ...

Q: With `CC[C@H](C)[C@@H]1NC(=O)[C@H](CO)NC(=O)[C@H](CCCCN)NC(=O)[C@@H]2CSSC[C@@H](C(=O)N[C@@H](Cc3ccc(O)cc3)C(=O)O)NC(=O)[C@H](CCCCN)NC(=O)[C@@H]3CSSC[C@H](NC(=O)[C@H](CCC(N)=O)NC(=O)[C@H](CCSC)NC(=O)[C@H](CC(=O)O)NC(=O)[C@H](CC(=O)O)NC(=O)[C@H](CCC(=O)O)NC(=O)[C@H](CC(=O)O)NC(=O)[C@H](Cc4c[nH]c5ccccc45)NC(=O)[C@@H]4CCCN4C(=O)CNC(=O)[C@H](CC(N)=O)NC(=O)[C@@H](NC(=O)CNC(=O)[C@H](Cc4ccccc4)NC(=O)CN)CSSC[C@H](NC(=O)[C@H](Cc4ccc(O)cc4)NC(=O)CNC(=O)CNC(=O)[C@H](CCCCN)NC(=O)[C@H](Cc4ccc(O)cc4)NC(=O)CNC(=O)[C@H](CCCCN)NC1=O)C(=O)N[C@@H](C)C(=O)N[C@@H](CCCCN)C(=O)NCC(=O)NCC(=O)N[C@@H](Cc1ccccc1)C(=O)N[C@@H](C(C)C)C(=O)N3)C(=O)N[C@@H](C)C(=O)N[C@@H](CC(N)=O)C(=O)N[C@@H](Cc1c[nH]cn1)C(=O)N2` [H16A] (H-GFGCNGPWDEDDMQCANHCKSIKGYKGGYCAKGGFVCKCY-OH; disulfide 4-30, 15-37, 19-39 (inferred); N-terminus and C-terminus assumed) as the compound, how does the “Minimum inhibitory concentration, S. simulans” value (S. simulans 22 [1]) read?
A: Its value is over 50 µg/mL.

Q: What about the “loss in lipid II binding affinity (ITC)” value ([2]; mutant vs plectasin) of the same compound?
A: Its value is over 10 fold.

Q: And the “oligomerization in HS-AFM (in words)” value [3]?
A: Its value is “oligomerization was not observed; also recorded: No plectasin oligomerization is observed”.

Q: Which “Minimum inhibitory concentration, S. pneumoniae serotype 8” value (S. pneumoniae serotype 8) does the source give for `CSCC[C@@H]1NC(=O)[C@H](CC(=O)O)NC(=O)[C@H](CC(=O)O)NC(=O)[C@H](CCC(=O)O)NC(=O)[C@H](CC(=O)O)NC(=O)[C@H](Cc2c[nH]c3ccccc23)NC(=O)[C@@H]2CCCN2C(=O)CNC(=O)[C@H](CC(N)=O)NC(=O)[C@@H](NC(=O)CNC(=O)[C@H](Cc2ccccc2)NC(=O)CN)CSSC[C@@H]2NC(=O)[C@H](Cc3ccc(O)cc3)NC(=O)CNC(=O)CNC(=O)[C@H](CCCCN)NC(=O)[C@H](Cc3ccc(O)cc3)NC(=O)CNC(=O)[C@H](CCCCN)NC(=O)[C@H](C)NC(=O)[C@H](CO)NC(=O)[C@H](CCCCN)NC(=O)[C@@H]3CSSC[C@@H](C(=O)N[C@@H](Cc4ccc(O)cc4)C(=O)O)NC(=O)[C@H](CCCCN)NC(=O)[C@H](CSSC[C@H](NC(=O)[C@H](CCC(N)=O)NC1=O)C(=O)N[C@@H](Cc1c[nH]cn1)C(=O)N[C@@H](CC(N)=O)C(=O)N[C@@H](Cc1c[nH]cn1)C(=O)N3)NC(=O)[C@H](C(C)C)NC(=O)[C@H](Cc1ccccc1)NC(=O)CNC(=O)CNC(=O)[C@H](CCCCN)NC(=O)[C@H](C)NC2=O` [I22A] (H-GFGCNGPWDEDDMQCHNHCKSAKGYKGGYCAKGGFVCKCY-OH; disulfide 4-30, 15-37, 19-39 (inferred); N-terminus and C-terminus assumed) here?
A: The value was over 25 µg/mL.

Q: And the “Minimum inhibitory concentration, S. pyogenes M3” value (S. pyogenes M3)?
A: Its value is over 25 µg/mL.

Q: What about the “lipid II binding by ITC (in words)” value ([2]; LUVs 2 mol% lipid II in DOPC, 37 °C) of the same compound?
A: The value was “do not bind lipid II”.

Q: With daptomycin [reference compound] as the compound, how does the “improvement of antimicrobial activity with increasing Ca^2+ concentration” value (S. simulans 22 [4]) read?
A: The value was over 60 fold.

Q: And the “increase in MIC if Ca^2+ is replaced by Mg^2+” value [5]?
A: The value was over 100.
